Test results as given in patent US10167293B2, “[8-(phenylsulfonyl)-3,8-diazabicyclo[3.2.1]oct-3-yl](1H-1,2,3-triazol-4-yl)methanones” (BAYER PHARMA AKTIENGESELLSCHAFT, priority 2016, dated 2019).

How the values were obtained:
[1] = tested on: human primary adipocytes; test: Inhibition of testosterone formation from androstenedione in human primary adipocytes; format: cell-based; conditions: 1 μM androstenedione, 1 μM or 10 μM compound, 48 h, donors with BMI 26 and 30
Protocol: Cat# SA-1012-3 12 well Platte). Adipocytes were incubated in Adipocyte Basal Medium (Fa. ZenBio, Cat# BM-1)+1% FCS+2.5 μg/ml Amphotericin B (Fa. […] Androstenedione served as a substrate for the formation into testosterone. After the incubation adipocytes were collected and testosterone and androstenedione concentrations were determined by LC/MS at the “Bioanalytical Service and research provider Pharm-Analyt”. Inhibition of the conversion of androstenedione to testosterone by compound 76 is determined as Testosterone/Androstenedione ratio [%]. […] FIG. 1: […] The testosterone/androstenedione ratio [%] is shown.

[2] = molecular target: recombinant human AKR1C3 (Homo sapiens (Human), UniProt P42330); test: AKR1C3-inhibitory activity assay (Coumberone to Coumberol fluorescence); format: biochemical; conditions: recombinant human AKR1C3, 15 min pre-incubation, 10 μM NADPH, 0.3 μM Coumberone
Summary of the method: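 The enzyme was E. coli-expressed, GST-cleaved AKR1C3 (~1 nM), preincubated 15 min with compound in 50 mM potassium phosphate pH 7, 1 mM DTT, 0.01% BSA. NADPH-dependent reduction of Coumberone (0.3 μM final) with 10 μM NADPH final ran typically 90 min at 22 °C in the linear range. After an EM-1404 stop, Coumberol fluorescence (ex 380/em 520 nm) was normalized to no-inhibitor and no-enzyme controls.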

[3] = tested on: endometriotic lesions; test: Callithrix jacchus endometriosis model; format: in vivo; conditions: 5 mg/kg orally once per day, 6 weeks
Protocol: The in vivo efficacy of compound 76 was tested in a non-human primate endometriosis model in marmoset monkeys.
Marmoset monkeys (Callithrix jacchus) are non-menstruating species in which endometriosis was induced by injection of endometrial tissue into the peritoneal cavity (Einspanier, Lieder et al, 2006). 6-12 year old female common marmosets with established endometriosis were employed (body weight between 358 g and 520 g) and distributed into 2 groups, with a size of n=5 animals per group. Prior to the actual start of the treatment, the animals were subjected to a laparotomy and examined for the presence of endometriotic lesions on the bladder, the uterus and the ovaries to measure each lesion's area. The randomization of animals into the two treatment groups was performed with respect to the initial lesion status at the first laparotomy. The endometriosis severity based on total lesion area per animal was distributed similarly across the groups.
For both the treatment group (5 mg/kg of compound 76) and vehicle treated group, the sum of total lesion area/size [cm^2] per animal, with respect to lesion area and lesion number, was determined and defined as pre-treatment status. 6 weeks later the treatment was started. The test compounds were administered orally once per day in capsules (PC Caps® capsules, Capsugel). To adapt for the intended dose, a trituration of the active compound with lactose was prepared and the exact dose was filled into the individual capsules. Each capsule was separately coated with salvia resistant coating (Eudragit EPO; Evonik). After the end of a 6 weeks treatment period, a second laparotomy was carried out and the number and size of the lesions on uterus, ovaries and bladder was determined with respect to total lesion size/area and defined as post-treatment status.

Sequence of recombinant human AKR1C3 (P42330 whole entry): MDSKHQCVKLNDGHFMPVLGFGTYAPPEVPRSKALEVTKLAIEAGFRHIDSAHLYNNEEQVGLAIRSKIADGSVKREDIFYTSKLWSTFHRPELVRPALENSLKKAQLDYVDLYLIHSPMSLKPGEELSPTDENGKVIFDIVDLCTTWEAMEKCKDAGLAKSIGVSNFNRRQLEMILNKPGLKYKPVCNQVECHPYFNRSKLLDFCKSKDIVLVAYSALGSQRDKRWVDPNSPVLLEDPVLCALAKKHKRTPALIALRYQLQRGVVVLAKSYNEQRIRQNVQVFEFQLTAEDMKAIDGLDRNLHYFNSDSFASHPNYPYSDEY

O=C(c1cnn[n-]1)N1CC2CCC(C1)N2S(=O)(=O)c1cccc(F)c1.[Na+] [Example 76, sodium 5-({8-[(3-fluorophenyl)sulfonyl]-3,8-diazabicyclo[3.2.1]oct-3-yl}carbonyl)-1,2,3-triazol-1-ide]
formation of testosterone from androstenedione (Testosterone/Androstenedione ratio) [1]: inhibited
IC50 [2]: 1.1 nM
mean reduction of the total lesion size compared to baseline ([3]; n=5): 68.9%
ratio of total lesion size/area post- versus pre-treatment ([3]; all treated animals): below 1
total lesion size post-treatment versus pre-treatment ([3]; marmosets with established endometriosis): strongly reduced

Cc1ccc(Br)cc1S(=O)(=O)N1C2CCC1CN(C(=O)c1cnn[nH]1)C2 [Example 65, {8-[(5-bromo-2-methylphenyl)sulfonyl]-3,8-diazabicyclo[3.2.1]oct-3-yl}(1H-1,2,3-triazol-5-yl)methanone]
IC50 [2]: 0.5 nM

COc1cc(F)ccc1S(=O)(=O)N1C2CCC1CN(C(=O)c1cnn[nH]1)C2 [Example 72, {8-[(4-fluoro-2-methoxyphenyl)sulfonyl]-3,8-diazabicyclo[3.2.1]oct-3-yl}(1H-1,2,3-triazol-5-yl)methanone]
IC50 [2]: 1.1 nM

O=C(c1cnn[nH]1)N1CC2CCC(C1)N2S(=O)(=O)c1ccc(Cl)cc1 [Example 22, {8-[(4-chlorophenyl)sulfonyl]-3,8-diazabicyclo[3.2.1]oct-3-yl}(1H-1,2,3-triazol-5-yl)methanone]
IC50 [2]: 1.5 nM
